Reference: patent US10793557B2, “Sting agonist compounds” (Merck Sharp & Dohme Corp., priority 2018, dated 2020)

Tests used:
[1] = tested on: secretion of interferon-beta from THP1 cells; assay: IFN-β secretion in THP1 cell culture (5 h); assay type: cell-based; settings: Homo sapiens, THP-1, 5 h, 30 uM cGAMP = 100%; for activation at 30 µM: compound at 30 μM, read-out: % Effect at 30 μM relative to 2′3′-cGAMP; for activation at 3 µM: compound at 3 uM, read-out: % Effect relative to 2′3′-cGAMP (@ 3 uM)
Outline: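 IFN-β in supernatant measured by AlphaLISA after a 5 h, 37 °C incubation of THP1 cells with compound (10 concentrations, 30000 down to 1.5 nM, 0.3% DMSO) in low-serum RPMI. Values scaled between DMSO and 30 uM cGAMP controls; 4-parameter curve fit yields EC50.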

full-length WT STING = target: T1, full-length WT STING (Homo sapiens, UniProt Q86WV6, H232R); assay: 3H-cGAMP filtration binding assay (WT STING); settings: for EC50: competition with tritiated cGAMP, WT STING membrane
T1 construct: AviTag (after gg linker) (C); HRV3C cleavage site (after gs linker) (C); HIS8 (C); made in house; host or cells: Trichoplusia ni (Hi-Five) insect cells infected with baculovirus (virus generated and amplified in Sf21 cells); used as a washed membrane preparation
T1 sequence (Q86WV6 with tags, fused parts or gaps H232R): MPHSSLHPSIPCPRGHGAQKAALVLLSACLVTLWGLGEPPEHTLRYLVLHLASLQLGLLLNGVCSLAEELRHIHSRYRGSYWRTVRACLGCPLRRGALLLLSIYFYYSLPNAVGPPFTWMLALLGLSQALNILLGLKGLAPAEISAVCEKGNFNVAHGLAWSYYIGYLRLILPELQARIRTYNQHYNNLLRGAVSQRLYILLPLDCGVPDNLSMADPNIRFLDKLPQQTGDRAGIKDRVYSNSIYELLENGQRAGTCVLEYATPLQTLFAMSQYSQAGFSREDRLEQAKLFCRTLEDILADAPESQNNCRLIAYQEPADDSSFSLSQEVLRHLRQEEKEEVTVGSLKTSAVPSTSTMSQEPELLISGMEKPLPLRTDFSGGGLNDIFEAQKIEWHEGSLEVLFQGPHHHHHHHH
Outline: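 EC50 values come from 4-parameter fits of remaining filter-bound tritium versus log concentration (10-point, 1:3 dilution). Insect-cell membranes carrying full-length WT STING were incubated 60 min at RT with compound and tritiated cGAMP (16 nM working stock) before filtration.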

full-length HAQ STING = target: T2, full-length HAQ STING (Homo sapiens, UniProt Q86WV6, G230A/H232R/R293Q/R71H); assay: 3H-cGAMP filtration binding assay (HAQ STING); settings: competition with tritiated cGAMP, HAQ STING membrane
T2 construct: AviTag (after GG linker) (C); HRV3C cleavage site (after GS linker) (C); HIS8 (C); made in house; host or cells: Trichoplusia ni (Hi-Five) insect cells infected with baculovirus (virus generated and amplified in Sf21 cells); used as a washed membrane preparation
T2 sequence (Q86WV6 with tags, fused parts or gaps R71H/G230A/H232R/R293Q): as the sequence (Q86WV6 with tags, fused parts or gaps H232R) above, with R71H, G230A, R293Q counted along it
Outline: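 Hi-Five (T. ni) membranes overexpressing the STING variant (2.2 ug/ml working) preincubated with compound 60 min at RT in PBS, then [3H]cGAMP (8 nM working stock) added for 60 min at RT. Bound radioactivity captured on GF/B filters and counted by scintillation; EC50 from 4-parameter fit of control-normalized activity.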

| SMILES | activation at 30 µM [1] | EC50 (full-length WT STING) | EC50 (full-length HAQ STING) | activation at 3 µM [1] | inhibition at 7 µM (full-length WT STING; at 7,000 nM compound) |
| --- | --- | --- | --- | --- | --- |
| COc1cc2cc(C(=O)C[C@H](C)C(=O)O)sc2cc1OCCCOc1c(OC)cc2sc(C(=O)CCC(=O)O)cc2c1F [Example 73, (S)-4-(6-(3-((2-(3-carboxypropanoyl)-4-fluoro-6-methoxybenzo[b]thiophen-5-yl)oxy)propoxy)-5-methoxybenzo[b]thiophen-2-yl)-2-methyl-4-oxobutanoic acid] | 67% | 4 nM | 1 nM | – | – |
| COc1cc2sc(C(=O)C[C@H](C)C(=O)O)cc2cc1OCCCOc1c(OC)cc2sc(CC[C@H](C)C(=O)O)cc2c1Cl [Example 150, (S)-4-(5-(3-((2-((S)-3-carboxybutyl)-4-chloro-6-methoxybenzo[b]thiophen-5-yl)oxy)propoxy)-6-methoxybenzo[b]thiophen-2-yl)-2-methyl-4-oxobutanoic acid] | – | 1040 nM | 213 nM | 52% | – |
| COc1cc2sc(C(=O)C[C@H](C)C(=O)O)cc2nc1OCCCOc1c(OC)cc2sc(C(=O)CC(C)(C)C(=O)O)cc2c1F [Example 59, (S)-4-(5-(3-((2-(3-carboxybutanoyl)-6-methoxythieno[3,2-b]pyridin-5-yl)oxy)propoxy)-4-fluoro-6-methoxybenzo[b]thiophen-2-yl)-2,2-dimethyl-4-oxobutanoic acid] | 18% | 2 nM | 1 nM | – | – |
| COc1cc2sc(C(=O)C[C@H](C)C(=O)O)cc2cc1OCCCOc1c(OC)cc2sc(C(=O)CCC(=O)O)cc2c1F [Example 72, (S)-4-(5-(3-((2-(3-carboxypropanoyl)-4-fluoro-6-methoxybenzo[b]thiophen-5-yl)oxy)propoxy)-6-methoxybenzo[b]thiophen-2-yl)-2-methyl-4-oxobutanoic acid] | 77% | 2 nM | 1 nM | – | – |
| COc1cc(CCCc2cc3sc(C(=O)CCC(=O)O)cc3cc2OC)c2cc(C(=O)CCC(=O)O)sc2c1 [Example 26, 4-(4-(3-(2-(3-carboxypropanoyl)-5-methoxbenzo[b]thiophen-6-yl)propyl)-6-methoxybenzo[b]thiophen-2-yl)-4-oxobutanoic acid] | 129% | 19 nM | 9 nM | – | – |
| COc1cc2sc(C(=O)C[C@H](C)C(=O)O)cc2cc1OCCCCCOc1cc2sc(C(=O)C[C@H](C)C(=O)O)cc2cc1OC [Example 104, (S)-4-(5-((5-((2-((S)-3-carboxybutanoyl)-5-methoxybenzo[b]thiophen-6-yl)oxy)pentyl)oxy)-6-methoxybenzo [b]thiophen-2-yl)-2-methyl-4-oxobutanoic acid] | 35% | 8900 nM | 467 nM | – | – |
| COc1cc2sc(C(=O)C[C@H](C)C(=O)O)cc2cc1OCCCCOc1c(OC)cc2sc(C(=O)C[C@H](C)C(=O)O)cc2c1F [Example 93, (S)-4-(5-(4-((2-((S)-3-carboxybutanoyl)-4-fluoro-6-methoxybenzo[b]thiophen-5-yl)oxy)butoxy)-6-methoxybenzo[b]thiophen-2-yl)-2-methyl-4-oxobutanoic acid] | 87% | 3 nM | 1 nM | – | – |
| COc1cc2sc(CC[C@H](C)C(=O)O)cc2c(F)c1OCCCOc1c(O)cc2sc(C(=O)C[C@H](C)C(=O)O)cc2c1Cl [Example 186, (S)-4-(5-(3-((2-((S)-3-carboxybutyl)-4-fluoro-6-methoxybenzo[b]thiophen-5-yl)oxy)propoxy)-4-chloro-6-hydroxybenzo[b]thiophen-2-yl)-2-methyl-4-oxobutanoic acid] | – | 756 nM | 133 nM | 56% | – |
| COc1cc2sc(C(=O)CCC(=O)O)cc2nc1OCCCOc1c(OC)cc2sc(C(=O)C[C@H](C)C(=O)O)cc2c1F [Example 23, (S)-4-(5-(3-((2-(3-carboxypropanoyl)-6-methoxythieno [3,2-b]pyridin-5-yl)oxy)propoxy)-4-fluoro-6-methoxybenzo[b]thiophen-2-yl)-2-methyl-4-oxobutanoic acid] | 83% | 2 nM | 1 nM | – | – |
| COc1cc2sc(C(=O)C[C@H](C)C(=O)O)cc2c(F)c1OC(C)CCC(C)Oc1c(OC)cc2sc(C(=O)C[C@H](C)C(=O)O)cc2c1F (stereo partly drawn) [Example 140, (2S,2′S)-4,4′-((hexane-2,5-diylbis(oxy))bis(4-fluoro-6-methoxybenzo[b]thiophene-5,2-diyl))bis(2-methyl-4-oxobutanoic acid)] | – | – | 2150 nM | 31% | 28% |
| COc1cc2sc(C(=O)C[C@H](C)C(=O)O)cc2c(F)c1OCCOc1c(OC)cc2sc(C(=O)C[C@H](C)C(=O)O)cc2c1F [Example 50, (2S,2′S)-4,4′-((ethane-1,2-diylbis(oxy))bis(4-fluoro-6-methoxybenzo[b]thiophene-5,2-diyl))bis(2-methyl-4-oxobutanoic acid)] | 44% | 1 nM | 1 nM | – | – |
| COc1cc2sc(C(=O)C[C@H](C)C(=O)O)cc2cc1CCCOc1c(OC)cc2sc(C(=O)CCC(=O)O)cc2c1F [Example 35, (S)-4-(5-(3-((2-(3-carboxypropanoyl)-4-fluoro-6-methoxybenzo[b]thiophen-5-yl)oxy)propyl)-6-methoxybenzo[b]thiophen-2-yl)-2-methyl-4-oxobutanoic acid] | 80% | 4 nM | 2 nM | – | – |
| COc1cc2sc(CC[C@H](C)C(=O)O)cc2cc1CCCc1cc2cc(C(=O)CCC(=O)O)sc2cc1OC [Example 31, (S)-4-(5-(3-(2-(3-carboxybutyl)-6-methoxybenzo[b]thiophen-5-yl)propyl)-6-methoxybenzo[b]thiophen-2-yl)-4-oxobutanoic acid] | 117% | 9480 nM | 3320 nM | – | – |
| COc1cc2sc(C(=O)CCC(=O)O)nc2cc1CCCc1cc2nc(C(=O)CCC(=O)O)sc2cc1OC [Example 27, 4,4′-(propane-1,3-diylbis(6-methoxybenzo[d]thiazole-5,2-diyl))bis(4-oxobutanoic acid)] | 113% | 362 nM | 89 nM | – | – |
| COc1cc2sc(C(=O)C[C@H](C)C(=O)O)cc2cc1OCCCOc1c(O)cc2sc(C(=O)C[C@H](C)C(=O)O)cc2c1F [Example 189, (S)-4-(5-(3-((2-((S)-3-carboxybutanoyl)-4-fluoro-6-hydroxybenzo[b]thiophen-5-yl)oxy)propoxy)-6-methoxybenzo[b]thiophen-2-yl)-2-methyl-4-oxobutanoic acid] | – | 2 nM | 1 nM | 111% | – |
| COc1cc2sc(C(=O)C[C@H](C)C(=O)O)cc2cc1CCCOc1c(OC)cc2sc(C(=O)[C@@H]3C[C@H]3C(=O)O)cc2c1F [Example 84, trans-2-(5-(3-(2-((S)-3-carboxybutanoyl)-6-methoxybenzo[b]thiophen-5-yl)propoxy)-4-fluoro-6-methoxybenzo[b]thiophene-2-carbonyl)-cyclopropanecarboxylic acid] | 148% | 1060 nM | 50 nM | – | – |
| COc1cc2sc(C(=O)CCC(=O)O)cc2cc1OCCOc1nc2cc(C(=O)C[C@H](C)C(=O)O)sc2cc1OC [Example 17, (S)-4-(5-(2-((2-(3-carboxypropanoyl)-6-methoxybenzo [b]thiophen-5-yl)oxy)ethoxy)-6-methoxythieno[3,2-b]pyridin-2-yl)-2-methyl-4-oxobutanoic acid] | 38% | 299 nM | 52 nM | – | – |
| COc1cc2sc(C(=O)CCC(=O)O)cc2cc1OCCc1nc2cc(C(=O)CCC(=O)O)sc2cc1OC [Example 7, 4-(5-(2-((2-(3-carboxypropanoyl)-6-methoxybenzo [b]thiophen-5-yl)oxy)ethyl)-6-methoxythieno[3,2-b]pyridin-2-yl)-4-oxobutanoic acid] | 97% | 71 nM | 17 nM | – | – |
| COc1cc2sc(C(=O)CCC(=O)O)cc2c(F)c1OCCCOc1c(OC)cc2sc(C(=O)[C@@H]3C[C@H]3C(=O)O)cc2c1F (relative stereo) [Example 88, trans-2-(5-(3-((2-(3-carboxypropanoyl)-4-fluoro-6-methoxybenzo[b]thiophen-5-yl)oxy)propoxy)-4-fluoro-6-methoxybenzo[b]thiophene-2-carbonyl)cyclopropane carboxylic acid] | 152% | 109 nM | 3 nM | – | – |
| COc1cc2sc(C(=O)C[C@H](C)C(=O)O)cc2nc1OCCCOc1c(OC)cc2sc(C(=O)C[C@H](C)C(=O)O)cc2c1F (racemic) [Example 22, rac-(R)-4-(5-(3-((2-((R)-3-carboxybutanoyl)-4-fluoro-6-methoxybenzo[b]thiophen-5-yl)oxy)propoxy)-6-methoxythieno[3,2-b]pyridin-2-yl)-2-methyl-4-oxobutanoic acid] | 48% | 1 nM | 1 nM | – | – |
